Experimental data reported in patent publication US9518107B2, “Pharmaceutical compositions containing polypeptides derived from α-1 antitrypsin and methods of use thereof” (YISSUM RESEARCH DEVELOPMENT COMPANY OF THE HEBREW …, priority 2010, dated 2016).

Assays:
[1] = test system: Male CD1 mice; assay: Carrageenan-induced hind paw swelling; format: in vivo; settings: UBE injected thirty minutes before carrageenan; swelling after 3 hours versus prior to carrageenan; FIG. 1
Method: Male CD1 mice were intravenously (i.v.) injected with the indicated doses of the UBE polypeptide having the sequence […] (SEQ ID NO:2). Thirty minutes thereafter, each animal was injected with carrageenan (50 μl of 3 mg/ml into each hindpaw). The animals were evaluated for the difference between the degree of swelling (mm) after 3 hours and prior to carrageenan injection.

[2] = test system: male MRL/lpr mice; assay: Advanced stage of Systemic Lupus Erythematosus in MRL/lpr mice; format: in vivo; settings: 1 μg/kg thrice a week from age of 22 weeks, 22 days; FIG. 10
Method: UBE (SEQ ID NO: 2; 1 μg/kg) was administered to male MRL/lpr mice thrice a week, starting at age of 22 weeks. At this age the mice are acutely affected and show a high level of proteinuria. Urine was obtained by spontaneous urination and the animals' urinary protein levels (mg/dl) were evaluated throughout the treatment period (22 days) using a commercial stick.

[3] = test system: Female NZBW/F1 mice; assay: Spontaneous lupus-like syndrome in NZBW/F1 mice (second SLE model); format: in vivo
Method: Female NZBW/F1 mice develop a lupus-like syndrome spontaneously. UBE (SEQ ID NO:2) (0.3 μg/kg) was administered to female NZBW/F1 mice daily (except for Saturday and Holidays), starting at the indicated time point (170 days) (n=10). Urine was obtained by spontaneous urination and the levels of protein (mg/dl) in the urine were evaluated throughout the treatment period using commercial sticks.
Quantitative histopathology analysis of the kidneys and lungs were also performed for this model (FIG. 12A-D). Kidneys were removed from control and UBE treated mice (0.3 lug/kg) then fixed in formalin, sliced, and stained by H&E. Representative histophathologies of the control versus UBE treated mice is shown FIGS. 12A versus 12B at 10× magnification, respectively. Note glomerular sclerosis (GS), thickening glomerular mesangium (G), protein accumulation in tubular lumen (PC), interstitial fibrosis (I) and perivascular lymphoid infiltration (lymphoid) in the control (12A) while normal appearance of kidney in the UBE-treated group (12B). The quantitative histopathology analysis with regard to tubular and interstitial damage is presented in FIG. 12C and FIG. 12D, respectively.
Quantitative histopathology analysis of the lungs was also performed for this model (FIG. 12E-G). Representative histophathologies of control versus UBE treated mice (0.3 μg/kg) is shown FIGS. 12E versus 12F at 10× magnification, respectively. Note heavy perivascular lymphoid infiltration (lymphoid) in the control samples (FIG. 12E) while normal appearance in the UBE-treated group (FIG. 12F).
In order to determine the levels of anti-dsDNA antibodies, blood was obtained by cardiac puncture of the NZBW/F1 mice at the indicated endpoint in UBE treatment, and the serum levels of anti-dsDNA antibodies and BLys (B lymphocyte stimulator) levels were determined by ELISA using a commercial kit (R&D Systems, Minneapolis, Minn., USA).
To evaluate the effect of UBE on lymphocyte function in NZBW/F1 mice, spleen cells and blood samples were isolated from control and UBE-treated (0.3 microgram per kilogram) mice and subjected to FACS analysis of double negative CD4−CD8− (expressed as percent CD3+) (FIG. 14).
Blood cells were similarly evaluated and representative results from control and UBE treated animals (0.3 μg/kg) are shown in FIGS. 14D and 14E, respectively.

[4] = test system: arthritic mice; assay: Collagen type II induced arthritis, joint swelling; format: in vivo; settings: 1 μg/kg thrice a week, from five days after second immunization; FIG. 16
Method: Chick collagen type II (2.0 mg) was incubated overnight in 0.01 M acetic acid (0.9 ml) at 4° C. The resulting solution was emulsified with equal volume (1.0 ml) of […] Freund's Adjuvant containing 5.0 mg heat-killed Mycobacterium tuberculosis. Thereafter, the animal was injected intradermally in the tail base with 100 μl of the emulsion and an additional immunization was repeated 21 days later. Five days later, UBE or UBE1 polypeptide were administered (1 μg/kg thrice a week). The animals were evaluated for the difference in joint thickness (mm) between the indicated time intervals and prior to immunization.

[5] = test system: HaCaT keratinocytes; assay: HaCaT keratinocyte proliferation (MTT assay); format: cell-based; settings: FIG. 18
Method: Cells (1.6×10^4/ml) were seeded (100 μl) in culture medium in 96 well plate. Twenty four hours later UBE was added at the indicated concentrations. Cell viability was determined by the MTT assay.

[6] = test system: Female C57B1/6 mice; assay: LPS induced sepsis in mice, UBE i.v.; format: in vivo; settings: i.v. within 1 hour after LPS 1.2 mg/mouse; 48 hours after LPS; 0.1 and 1.0 μg/kg; FIG. 20B
Method: Female C57B1/6 mice 7-8 weeks of age were injected i.p with LPS 1.2 mg/mouse. Thereafter (within 1 hour) UBE peptide as depicted by SEQ ID NO: 2 was injected i.v. (100 μl) at different doses; control group received PBS. Survival of mice was monitored. n=10 for control group, n=9 for each UBE-treated group.

[7] = test system: mice; assay: LPS induced sepsis in mice, second protocol, UBE i.p.; format: in vivo; settings: for survival of the mice treated: repeated after 24 hours, 50 hours post LPS injection, FIG. 20A
Method: In a second protocol, mice were injected i.p. with LPS (dissolved in saline solution) at a dose of 1.2 mg/mouse, followed by i.p. injection of UBE at a dose of 1.0 or 10.0 μg/kg after 30 minutes. UBE treatment was repeated after 24 hours (n=4 for UBE-treated groups and n=5 for controls).

[8] = test system: Human CD4 cells; assay: Cytokine profile in human CD4+ cells activated with anti CD3 and anti CD28 antibodies (Multiplex); format: cell-based; settings: UBE 100 ng/ml, 72 hours
Method: Human CD4 cells were MACS separated from blood of healthy donors using the immunomagnetic separation system of Miltenyi, in accordance with manufacturer instructions. Cells were incubated (each well contained 0.5×106/0.5 ml) with human IL2 (100 U/ml) and human anti CD3 antibodies (1 ug/ml) and human anti CD28 antibodies (1 ug/ml) with or without UBE (100 ng/ml) for 72 hours in a CO2 (6%) incubator at 37° C. in multiwall plates. Thereafter plates were centrifuged and supernatants were collected and stored at −20° C. until cytokine analysis was conducted. Cytokines were determined by Multiplex system (BioRad). *p<0.02, **p<0.006 using students t-test for comparison between UBE-treated and control cells.

SMPPIVRFDHPFLFIIFEEHTQSPLFVGKVVDPTHK (listed as Mus musculus) [UBE, 36-mer peptide corresponding to residues 378-413 of Mus musculus alpha-1-antitrypsin (serpin a1c)]
carrageenan-induced inflammation (hind paw swelling) [1]: significant reduction
proteinuria (urinary protein) [2]: significant reduction
rise in urinary protein levels (proteinuria) ([3]; UBE 0.3 μg/kg daily from 170 days, FIG. 11A): abrogated
pathological score of the tubular areas (kidney histopathology) ([3]; UBE 0.3 μg/kg, FIG. 12C): significant reduction
pathological score of the interstitial areas (kidney histopathology) ([3]; UBE 0.3 μg/kg, FIG. 12D): significant reduction
pathological score, lung parenchymal damage ([3]; UBE 0.3 μg/kg, FIG. 12G): significant reduction
serum BLys (B lymphocyte stimulator) level, ELISA ([3]; UBE 0.3 μg/kg, FIG. 13A): significant reduction
serum anti-dsDNA antibody level, ELISA ([3]; UBE 0.3 μg/kg, FIG. 13B): significant reduction
double negative CD4−CD8− cells, FACS ([3]; blood, UBE 0.3 μg/kg, FIG. 14F): dramatically reduced
double negative CD4−CD8− cells (percent CD3+), FACS ([3]; spleen, UBE 0.3 μg/kg, FIG. 14C): dramatically reduced
joint swelling (difference in joint thickness) [4]: reduction in joint swelling
effect on cultured keratinocyte proliferation (cell viability, MTT) [5]: anti-proliferative effect
reduction of LPS-induced mortality [6]: 33%
survival of the mice treated ([7]; UBE 1.0 μg/kg i.p. 30 minutes after LPS): approximately 50%
survival of the mice treated ([7]; UBE 10 μg/kg i.p. 30 minutes after LPS): approximately 50%
survival time as compared to controls ([7]; both UBE dosages (1.0 and 10 μg/kg i.p.)): significantly prolonged survival
inflammatory mediators overall (IL6, IL17A, IL21, IL22, IL23, IL31, IFNγ) ([8]; FIG. 22A-G): overall trend in reduced inflammatory mediators
IL22 production ([8]; FIG. 22D): significantly reduced
IL23 production ([8]; FIG. 22E): significantly reduced
IL31 production ([8]; FIG. 22F): significantly reduced
